“Also recorded” adds a separate entry of the source. Where two headings read alike, the source gives them in different places. Marks after values point to notes of the source that are not given here.
Key:
S. aureus ATCC 29213 = test: MIC determination, S. aureus ATCC 29213; details: for antibacterial activity (in words): S. aureus ATCC 29213 MIC screening, active = MIC ≤ 8 μg/mL
S. aureus ATCC 27660 = details: cited from earlier work
[1] = cited from earlier work

Molecule	antibacterial activity (in words) (S. aureus ATCC 29213)	other results
Oc1cccc(-c2nc(-c3ccc(Oc4ccccc4)cc3)no2)c1 [95a]	failed to show activity	–
NS(=O)(=O)c1ccc(-c2nc(-c3ccc(Oc4ccc(C(F)(F)F)cc4)cc3)no2)cc1 [87b]	failed to show activity; also recorded: attenuate or abrogate activity	–
Fc1ccc(-c2nc(-c3ccc(Oc4ccccc4)cc3)no2)cc1 [80a]	loss of activity	–
COc1cc(-c2nc(-c3ccc(Oc4ccccc4)cc3)no2)ccc1N [94a]	abolish activity	–
Nc1ccc(-c2nc(-c3ccc(Oc4ccc(C(F)(F)F)cc4)cc3)no2)cc1F [72b]	without significant loss of activity	–
Nc1c[nH]c(-c2nc(-c3ccc(Oc4ccc(F)cc4)cc3)no2)c1 [126c]	generally abolish antibacterial activity	–
NS(=O)(=O)c1ccc(-c2nc(-c3ccc(Oc4ccc(F)cc4)cc3)no2)cc1 [87c]	attenuate or abrogate activity	–
FC(F)(F)c1ccc(Oc2ccc(-c3noc(-c4n[nH]c5ccccc45)n3)cc2)cc1 [123b]	No activity	–
FC(F)(F)c1ccc(Oc2ccc(-c3noc(-c4cc[nH]n4)n3)cc2)cc1 [102b]	No activity	–
Nc1ccc(-c2nc(-c3ccc(Oc4ccc(F)cc4)cc3)no2)cc1 [58c]	no antibiotic activity	–
Oc1ccc(-c2nc(-c3ccc(Oc4ccc(C(F)(F)F)cc4)cc3)no2)cc1 [compound 1]	–	ED50 (S. aureus ATCC 27660; iv, 2 doses given at 30 min and 7.5 h after infection): ED50 = 40 mg/kg^c; ED50 (S. aureus ATCC 27660; po, single dose given at 1 h after infection): 44^a mg/kg
c1ccc(Oc2ccc(-c3noc(-c4ccncc4)n3)cc2)cc1 [114a]	generally abolish antibacterial activity	–
FC(F)(F)c1ccc(Oc2ccc(-c3noc(-c4n[nH]cc4NC4CCCCC4)n3)cc2)cc1 [106b]	did not extend	–
Nc1ccc(-c2nc(-c3ccc(Oc4ccccc4)cc3)no2)cc1 [58a]	low MIC values	–
Nc1ccc(-c2nc(-c3ccc(Oc4ccc(C(F)(F)F)cc4)cc3)no2)cc1 [58b]	low MIC values	–
Oc1c(F)cc(-c2nc(-c3ccc(Oc4ccc(C(F)(F)F)cc4)cc3)no2)cc1F [71b]	without significant loss of activity	–
Nc1cncc(-c2nc(-c3ccc(Oc4ccc(F)cc4)cc3)no2)c1 [122c]	No activity	–
Oc1ccccc1-c1nc(-c2ccc(Oc3ccccc3)cc2)no1 [97a]	failed to show activity	–
Oc1ccc(-c2nc(-c3ccc(Oc4ccc(C(F)(F)F)cc4)cc3)no2)cc1O [69b]	retained activity	–
O=C(Nc1c[nH]nc1-c1nc(-c2ccc(Oc3ccc(C(F)(F)F)cc3)cc2)no1)c1ccccc1 [108b]	did not extend	–

Molecule	antibacterial activity (in words) (S. aureus ATCC 29213)	other results
FC(F)(F)c1ccc(Oc2ccc(-c3noc(-c4cn[nH]n4)n3)cc2)cc1 [117b]	generally abolish antibacterial activity	–
O=[N+]([O-])c1cc(-c2nc(-c3ccc(Oc4ccc(F)cc4)cc3)no2)ccc1O [91c]	failed to show activity; also recorded: abolish activity	–
Nc1cc(-c2nc(-c3ccc(Oc4ccc(F)cc4)cc3)no2)ccc1O [92c]	failed to show activity	–
Nc1c(F)cc(-c2nc(-c3ccc(Oc4ccccc4)cc3)no2)cc1F [73a]	without significant loss of activity	–
CCCCCCCCCC(=O)N[C@@H](Cc1c[nH]c2ccccc12)C(=O)N[C@H](CC(N)=O)C(=O)N[C@@H](CC(=O)O)C(=O)N[C@@H]1C(=O)NCC(=O)N[C@@H](CCCN)C(=O)N[C@@H](CC(=O)O)C(=O)N[C@H](C)C(=O)N[C@@H](CC(=O)O)C(=O)NCC(=O)N[C@H](CO)C(=O)N[C@@H]([C@H](C)CC(=O)O)C(=O)N[C@@H](CC(=O)c2ccccc2N)C(=O)O[C@@H]1C [daptomycin]	–	plasma protein binding ([1]; plasma): > 91%
O=[N+]([O-])c1c[nH]c(-c2nc(-c3ccc(Oc4ccc(F)cc4)cc3)no2)c1 [78c]	generally abolish antibacterial activity	–
COc1cc(-c2nc(-c3ccc(Oc4ccc(C(F)(F)F)cc4)cc3)no2)ccc1O [93b]	failed to show activity; also recorded: abolish activity	–
FC(F)(F)c1ccc(Oc2ccc(-c3noc(-c4ccc(Br)cc4)n3)cc2)cc1 [81b]	loss of activity	–
Cc1nc(-c2ccc(Oc3ccccc3)cc2)no1 [113a]	abolishes activity	–
Nc1cc(-c2nc(-c3ccc(Oc4ccc(C(F)(F)F)cc4)cc3)no2)cnc1O [121b]	No activity	–
O=[N+]([O-])c1c[nH]c(-c2nc(-c3ccc(Oc4ccc(C(F)(F)F)cc4)cc3)no2)c1 [78b]	retained good activity	–
CC(C)CNc1c[nH]nc1-c1nc(-c2ccc(Oc3ccc(C(F)(F)F)cc3)cc2)no1 [105b]	did not extend	–
CC(C)Nc1c[nH]nc1-c1nc(-c2ccc(Oc3ccccc3)cc2)no1 [65a]	active	–
Oc1cc(-c2nc(-c3ccc(Oc4ccccc4)cc3)no2)ccc1I [96a]	failed to show activity	–
N#Cc1c[nH]nc1-c1nc(-c2ccc(Oc3ccc(C(F)(F)F)cc3)cc2)no1 [67b]	maintained good activity	–
FC(F)(F)c1ccc(Oc2ccc(-c3noc(-c4c[nH]cn4)n3)cc2)cc1 [76b, 5-(1H-Imidazol-4-yl)-3-(4-(4-(trifluoromethyl)phenoxy)phenyl)-1,2,4-oxadiazole]	retained good activity	–
FC(F)(F)c1ccc(Oc2ccc(-c3noc(-c4nc[nH]n4)n3)cc2)cc1 [116b]	generally abolish antibacterial activity	–
O=P(O)(O)c1ccc(-c2nc(-c3ccc(Oc4ccc(F)cc4)cc3)no2)cc1 [84c]	loss of activity; also recorded: attenuate or abrogate activity	–
teicoplanin	–	plasma protein binding ([1]; plasma): > 91%
COC(=O)c1ccc(-c2nc(-c3ccc(Oc4ccc(F)cc4)cc3)no2)cc1 [90c]	failed to show activity	–

Molecule	antibacterial activity (in words) (S. aureus ATCC 29213)	other results
Nc1c[nH]nc1-c1nc(-c2ccc(Oc3ccc(C(F)(F)F)cc3)cc2)no1 [64b, 3-(3-(4-(4-(Trifluoromethyl)phenoxy)phenyl)-1,2,4-oxadiazol-5-yl)-1H-pyrazol-4-amine]	tolerated	–
[O-][n+]1ccc(-c2nc(-c3ccc(Oc4ccccc4)cc3)no2)cc1 [115a]	generally abolish antibacterial activity	–
Nc1cncc(-c2nc(-c3ccc(Oc4ccc(C(F)(F)F)cc4)cc3)no2)c1 [122b]	No activity	–
Fc1ccc(Oc2ccc(-c3noc(-c4cc[nH]c4)n3)cc2)cc1 [127c]	generally abolish antibacterial activity	–
FC(F)(F)c1ccc(Oc2ccc(-c3noc(-c4c[nH]c5ncccc45)n3)cc2)cc1 [125b]	No activity	–
O=c1[nH]c(-c2ccc(Oc3ccccc3)cc2)no1 [112a]	abolishes activity	–
O=C(O)c1ccc(-c2nc(-c3ccc(Oc4ccc(F)cc4)cc3)no2)cc1 [89c]	failed to show activity; also recorded: attenuate or abrogate activity	–
CCCCNc1c[nH]nc1-c1nc(-c2ccc(Oc3ccc(C(F)(F)F)cc3)cc2)no1 [104b]	did not extend	–
CO[C@H]1/C=C/O[C@@]2(C)Oc3c(C)c(O)c4c(O)c(c(/C=N/N5CCN(C)CC5)c(O)c4c3C2=O)NC(=O)/C(C)=C\C=C\[C@H](C)[C@H](O)[C@@H](C)[C@@H](O)[C@@H](C)[C@H](OC(C)=O)[C@@H]1C [rifampicin]	–	plasma protein binding ([1]; antibiotics on the market): > 91%
CCn1ccc(-c2nc(-c3ccc(Oc4ccc(F)cc4)cc3)no2)n1 [118c]	No activity	–
Oc1ccc(-c2nc(-c3ccc(Oc4ccc(C(F)(F)F)cc4)cc3)no2)cn1 [120b]	No activity	–
OCC#Cc1c[nH]nc1-c1nc(-c2ccc(Oc3ccc(C(F)(F)F)cc3)cc2)no1 [68b]	maintained good activity	–
FC(F)(F)c1ccc(Oc2ccc(-c3noc(-c4n[nH]cc4NC4CCCC4)n3)cc2)cc1 [107b]	did not extend	–
NC(=O)c1ccc(-c2nc(-c3ccc(Oc4ccc(F)cc4)cc3)no2)cc1 [88c]	failed to show activity; also recorded: attenuate or abrogate activity	–
O=[N+]([O-])c1cc(-c2nc(-c3ccc(Oc4ccc(C(F)(F)F)cc4)cc3)no2)cnc1O [77b]	retained good activity	–
O=C(Nc1c[nH]nc1-c1nc(-c2ccc(Oc3ccc(C(F)(F)F)cc3)cc2)no1)c1ccccn1 [109b]	did not extend	–
O=[N+]([O-])c1ccc(-c2nc(-c3ccc(Oc4ccccc4)cc3)no2)cc1 [82a]	loss of activity	–
Cc1onc(-c2ccccc2)c1C(=O)N[C@@H]1C(=O)N2[C@@H]1SC(C)(C)[C@@H]2C(=O)O [oxacillin]	–	plasma protein binding ([1]; plasma): > 91%
Brc1c[nH]nc1-c1nc(-c2ccc(Oc3ccccc3)cc2)no1 [61a]	–	MIC (S. aureus ATCC 29213; Staphylococcus aureus, ATCC29213|MSSA): ≤ 1 µg/mL

Reference: publication PMC6863074 (Journal of medicinal chemistry, 2015)
